Experimental data published in patent CN112159318A, “一种具有抗病毒活性的大叶桉酮及其制备方法和用途” (Kunming Institute of Botany of CAS, priority 2020, dated 2021).
Entries after “also recorded” stand apart in the source; their conditions may differ.

What was measured:
[1] = test system: viral RNA polymerase [病毒RNA聚合酶]; details: adenosine analogue; cited from earlier work
Zika virus [寨卡病毒] [2] = details: cited from earlier work
[3] = biological target: NS5 methyltransferase [NS5甲基转移酶]; details: NS5 methyltransferase inhibitors; cited from earlier work
ZIKV SZ-WIV01 [4] = assay: Plaque assay, ZIKV SZ-WIV01 in Vero cells; format: cell-based, Zika virus; details: for EC50: Zika virus, Vero, 96 h
ZIKV MR766 = assay: Plaque assay, ZIKV MR766 in Vero cells; format: cell-based; details: Zika virus, 96 h
ZIKV [5] = assay: qRT-PCR of ZIKV replication in A549 cells; format: cell-based, Zika virus; details: human A549 cells, 0.4-50 μM
ZIKV SZ-WIV01 [6] = assay: Immunofluorescence of ZIKV E protein positive Vero cells; format: cell-based, Zika virus; details: ZIKV SZ-WIV01 MOI=1, 50 μM, 48 h, vs DMSO
[7] = test system: Gluc luciferase [荧光素酶Gluc]; assay: Gluc activity in HEK-293T cells expressing only Gluc (counter-test); format: cell-based
[8] = test system: ZIKV MR766 E protein [ZIKV E蛋白]; assay: Western blot of ZIKV E protein expression; format: cell-based, Zika virus; details: 48 h
ZIKV [9] = assay: Internalization of ZIKV into host cells; format: cell-based, Zika virus
ZIKV SZ-WIV01 [10] = assay: qRT-PCR of ZIKV RNA in supernatant of infected Vero cells; format: cell-based, Zika virus; details: ZIKV SZ-WIV01 500 PFU, 3.125-25 μM, 48 h
ZIKV [11] = assay: qRT-PCR of ZIKV replication in Huh-7 cells; format: cell-based, Zika virus; details: human Huh-7 cells, 0.4-50 μM
ZIKV SZ-WIV01 [12] = assay: Adsorption (binding) assay, qRT-PCR of ZIKV on Vero cell surface; format: cell-based, Zika virus; details: ZIKV SZ-WIV01 MOI=1, 50 μM, 4°C, 1 h, vs DMSO
[13] = MTT cytotoxicity in Vero cells; format: cell-based, African green monkey; details: monkey
Vero cells [Vero细胞] = assay: MTT cytotoxicity in Vero cells; format: cell-based, African green monkey; details: Vero CC50 relative to anti-ZIKV EC50; strain not stated
ZIKV NS5 = assay: Western blot of NS5 expression in HEK-293T cells; format: cell-based, Zika virus; details: 24 h
AXL = assay: Flow cytometry of AXL expression on Vero cell surface; format: cell-based, African green monkey; details: Vero cells, 50 μM, 37°C 1 h, then ZIKV SZ-WIV01 MOI=1, 1 h
ZIKV SZ-WIV01 [14] = assay: Time-of-addition assay, qRT-PCR, Vero cells; format: cell-based, Zika virus; details: ZIKV SZ-WIV01 MOI=1, 50 μM
[15] = biological target: T1, RNA-dependent RNA polymerase (RdRp) of ZIKV NS5 [ZIKV的RNA依赖的RNA聚合酶(RdRp)] (Zika virus, UniProt Q32ZE1); assay: ZIKV NS5 RdRp activity, Gluc reporter in NS5-expressing HEK-293T cells; format: cell-based; details: 24 h
T1 construct: 1μg ZIKV NS5载体共转染到HEK-293T细胞中; expressed in transfected cells; host or cells: HEK-293T
T1 sequence (Q32ZE1 2517-3419): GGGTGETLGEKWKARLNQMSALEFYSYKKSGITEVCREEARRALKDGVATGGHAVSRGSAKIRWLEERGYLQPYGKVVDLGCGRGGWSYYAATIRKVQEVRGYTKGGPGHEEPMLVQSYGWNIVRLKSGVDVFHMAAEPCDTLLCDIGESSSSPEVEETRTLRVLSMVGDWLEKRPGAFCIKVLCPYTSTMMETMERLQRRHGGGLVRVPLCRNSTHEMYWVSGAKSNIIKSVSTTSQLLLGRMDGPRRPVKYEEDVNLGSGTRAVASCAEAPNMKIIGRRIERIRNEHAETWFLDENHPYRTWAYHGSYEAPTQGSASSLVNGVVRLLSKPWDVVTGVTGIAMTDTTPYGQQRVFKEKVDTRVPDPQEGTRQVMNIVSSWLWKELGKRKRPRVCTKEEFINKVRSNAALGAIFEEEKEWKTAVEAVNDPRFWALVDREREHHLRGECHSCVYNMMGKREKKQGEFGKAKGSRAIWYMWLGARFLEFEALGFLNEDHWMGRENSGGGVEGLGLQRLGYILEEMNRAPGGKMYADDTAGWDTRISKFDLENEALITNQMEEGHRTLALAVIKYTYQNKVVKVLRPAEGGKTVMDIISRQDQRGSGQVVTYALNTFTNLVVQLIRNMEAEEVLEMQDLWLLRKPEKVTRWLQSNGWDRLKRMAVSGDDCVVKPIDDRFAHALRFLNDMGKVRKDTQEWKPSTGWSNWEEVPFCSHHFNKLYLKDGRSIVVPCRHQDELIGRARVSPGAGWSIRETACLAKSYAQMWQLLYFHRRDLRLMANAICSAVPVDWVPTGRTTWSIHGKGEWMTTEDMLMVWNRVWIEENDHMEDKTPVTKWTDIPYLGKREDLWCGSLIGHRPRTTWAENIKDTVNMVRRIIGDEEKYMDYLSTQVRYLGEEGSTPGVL

Zika virus [寨卡病毒] [16] = details: cited from earlier work; remark: listed apart in the source

Nc1ncnc2c([C@@H]3N[C@H](CO)[C@@H](O)[C@H]3O)c[nH]c12 [BCX4430]
inhibition of viral RNA polymerase function [1]: 能抑制病毒RNA聚合酶的功能

Cc1c(-c2ccc(-c3ccccc3F)cc2)nc2ccc(F)cc2c1C(=O)O [Brequinar]
anti-Zika virus activity (Zika virus [寨卡病毒] [2]): 具有抗寨卡病毒活性

Nc1ncnc2c1ncn2[C@@H]1O[C@H](CSCC[C@H](N)C(=O)O)[C@@H](O)[C@H]1O [S-腺苷基-同型半胱氨酸, S-adenosyl-L-homocysteine]
IC50 [3]: 0.43 µM

NC(=O)c1ncn([C@@H]2O[C@H](CO)[C@@H](O)[C@H]2O)n1 [利巴韦林, reference compound]
EC50 (ZIKV SZ-WIV01 [4]): 47.5 ± 4.73 µM | EC50 (ZIKV MR766): 58.8 ± 1.86 µM | anti-Zika virus activity (Zika virus [寨卡病毒] [2]): 具有抗寨卡病毒活性

COc1cc(O)c(C(CC(C)C)c2c(O)cc(OC)c(C(=O)C(C)C)c2O)c(O)c1C(=O)C(C)C [大叶桉酮G, Eucalyprobusone G]
inhibition of ZIKV replication (ZIKV [5]): 以剂量依赖型方式抑制两种人源细胞中ZIKV的复制 | ZIKV E protein positive cells (immunofluorescence) (ZIKV SZ-WIV01 [6]): ZIKV E蛋白阳性细胞显著减少 | effect on Gluc activity in cells expressing only Gluc [7]: 对荧光素酶的活性没有影响; also recorded: 对Gluc的活性没有影响 | expression of ZIKV E protein (Western blot) ([8]; ZIKV MR766, 2 μM or higher): 几乎完全抑制了E蛋白的表达 | expression of ZIKV E protein (Western blot), concentration dependence ([8]; ZIKV MR766, 0.08-50 μM): 随着大叶桉酮G浓度的增加,ZIKV E蛋白的表达逐渐被抑制 | internalization of ZIKV into host cells (ZIKV [9]): 抑制ZIKV与宿主细胞的结合和内化 | inhibition of ZIKV RNA production (ZIKV SZ-WIV01 [10]): 以剂量依赖性的方式抑制ZIKV RNA的产生 | inhibition of ZIKV replication (ZIKV [11]): 以剂量依赖型方式抑制两种人源细胞中ZIKV的复制 | ZIKV adsorption (binding) to host cells (ZIKV SZ-WIV01 [12]): 抑制了ZIKV的吸附; also recorded: 抑制ZIKV与宿主细胞的结合 | selectivity ratio ([13]; vero cells, Vero CC50 relative to anti-ZIKV EC50, strain not stated, read-out: therapeutic index): > 49.5 | CC50 at 96 h ([13]; MTT, Vero cells, 4 days): > 500 µM | therapeutic index (Vero cells [Vero细胞]): > 49.5 | effect on NS5 expression (ZIKV NS5): 不影响NS5的表达; also recorded: 对NS5的表达没有影响 | AXL expression (AXL): 不影响AXL的表达 | inhibition of ZIKV-induced plaque formation (ZIKV SZ-WIV01 [4]; Vero cells, 3.125-25 μM, vs DMSO): 以剂量依赖方式抑制ZIKV感染诱导的噬斑形成 | EC50 (ZIKV SZ-WIV01 [4]): 10.1 ± 3.84 µM | anti-Zika virus activity compared with positive control ribavirin (ZIKV SZ-WIV01 [4]; plaque assay, ZIKV SZ-WIV01 and ZIKV MR766): 优于阳性对照药利巴韦林; also recorded: 显著高于阳性对照药利巴韦林 | stage of viral life cycle acted on (ZIKV SZ-WIV01 [14]; added 0-12 h post infection): 主要抑制ZIKV RNA的合成 | inhibition of ZIKV replication when added 6 h post infection (ZIKV SZ-WIV01 [14]; supernatant at 24 h): 显著抑制了ZIKV的复制 | inhibition of NS5-induced increase in Gluc activity ([15]; 10 μmol/L): 几乎完全抑制 | inhibition of Gluc activity in NS5-expressing cells (RdRp activity) ([15]; 1.25-10 μM): 以剂量依赖性的方式抑制了表达NS5的细胞中的荧光素酶Gluc的活性; also recorded: 可以抑制NS5中RdRp结构域的活性; also recorded: 呈剂量依赖型方式降低Gluc的活性 | EC50 (ZIKV MR766): 0.43 ± 0.08 µM

Cc1ccc(C(=O)Nc2ccc(S(=O)(=O)O)c3cc(S(=O)(=O)O)cc(S(=O)(=O)O)c23)cc1NC(=O)c1cccc(NC(=O)Nc2cccc(C(=O)Nc3cc(C(=O)Nc4ccc(S(=O)(=O)O)c5cc(S(=O)(=O)O)cc(S(=O)(=O)O)c45)ccc3C)c2)c1 [苏拉明]
effect on Zika virus binding and attachment to host cells (Zika virus [寨卡病毒] [16]): 可以影响寨卡病毒的结合以及与宿主细胞的附着

Nc1ncnc2c1ncn2[C@@H]1O[C@H](C[C@@H](N)CC[C@H](N)C(=O)O)[C@@H](O)[C@H]1O [西奈芬净, Sinefungin]
IC50 [3]: 1.18 µM

COc1c(C)c2c(c(O)c1C/C=C(\C)CCC(=O)O)C(=O)OC2 [麦考酚酸]
anti-Zika virus activity (Zika virus [寨卡病毒] [2]): 具有抗寨卡病毒活性
